Results as given in patent US4459290A, “C-23-Modified derivatives of OMT, pharmaceutical compositions and method of use” (priority 1982, dated 1984).
In brackets after ≈: the same amount, converted by molar mass. Read-outs that look alike come from different tables or passages of the source.

Experiments:
[1] = tested on: Haemophilus influenzae Holt; test: MIC, standard agar-dilution assay (Table V); assay type: cell-based; settings: Haemophilus influenzae
Description: (§1) The MIC's in Tables V and VI were determined by standard agar-dilution assays. The MIC's in Table VII were obtained using a conventional broth-dilution microtiter test.

[2] = tested on: Streptococcus pyogenes C203; test: MIC, standard agar-dilution assay (Table V); assay type: cell-based; settings: Streptococcus pyogenes
Description: as §1

[3] = tested on: Haemophilus influenzae R252; test: MIC, standard agar-dilution assay (Table V); assay type: cell-based; settings: Haemophilus influenzae, R252
Description: as §1

Escherichia coli TEM = test: MIC, standard agar-dilution assay (Table V); assay type: cell-based; settings: Escherichia coli
Description: as §1

[4] = tested on: Pasteurella multocida 60A; test: MIC, broth-dilution microtiter test (Table VII); assay type: cell-based; settings: Pasteurella multocida
In short: (§2)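 MICs were determined two ways: a standard agar-dilution assay for the Enterobacter aerogenes strain, and a conventional broth-dilution microtiter test for Staphylococcus aureus and both Pasteurella multocida strains.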

Staphylococcus aureus = test: MIC, broth-dilution microtiter test (Table VII); assay type: cell-based; settings: Staphylococcus aureus
In short: as §2

Mycoplasma synoviae = test: MIC, broth-dilution microtiter test (Table VII); assay type: cell-based; settings: Mycoplasmopsis synoviae
Description: (§3) Especially noteworthy is the improved activity against gram-negative bacteria for several derivatives when compared to the activity of OMT. […] The MIC's in Tables V and VI were determined by standard agar-dilution assays. The MIC's in Table VII were obtained using a conventional broth-dilution microtiter test.

Streptococcus sp. 80 = test: MIC, broth-dilution microtiter test (Table VII); assay type: cell-based; settings: Streptococcus sp. 80; broth-dilution microtiter; read-out: MIC
Description: as §3

[5] = tested on: Pasteurella multocida 68C; test: MIC, broth-dilution microtiter test (Table VII); assay type: cell-based; settings: Pasteurella multocida
In short: as §2

Mycoplasma gallisepticum = test: MIC, broth-dilution microtiter test (Table VII); assay type: cell-based; settings: Mycoplasmoides gallisepticum
Description: as §3

[6] = tested on: Pasteurella hemolytica 22C; test: MIC, broth-dilution microtiter test (Table VII); assay type: cell-based; settings: Pasteurella, P. hemolytica 22C, read-out: MIC
In short: (§4)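 Broth microdilution, run as a conventional microtiter test, supplied MICs for the gram-positive S. aureus and the Pasteurella isolates. Enterobacter data instead rest on a standard agar-dilution procedure.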

[7] = tested on: Pasteurella multocida 22A; test: MIC, broth-dilution microtiter test (Table VII); assay type: cell-based; settings: Pasteurella multocida
In short: as §2

[8] = tested on: Pasteurella hemolytica 23C; test: MIC, broth-dilution microtiter test (Table VII); assay type: cell-based; settings: Pasteurella, P. hemolytica 23C, read-out: MIC
In short: as §4

[9] = tested on: Pasteurella multocida 40G; test: MIC, broth-dilution microtiter test (Table VII); assay type: cell-based; settings: Pasteurella multocida
In short: as §2

Mycoplasma hyorhinis = test: MIC, broth-dilution microtiter test (Table VII); assay type: cell-based
Description: as §3

[10] = tested on: Pasteurella hemolytica 41D; test: MIC, broth-dilution microtiter test (Table VII); assay type: cell-based; settings: Pasteurella, P. hemolytica 41D, read-out: MIC
In short: as §4

[11] = tested on: Pasteurella multocida 17E; test: MIC, broth-dilution microtiter test (Table VII); assay type: cell-based; settings: Pasteurella multocida
In short: as §2

these strains = test: Activity against the strains of Table VI, agar-dilution; assay type: cell-based; settings: at the levels tested
Description: as §3

[12] = tested on: Streptococcus pyogenes C203; test: ED50 in mice experimentally infected with S. pyogenes C203 (Table VIII); assay type: in vivo
Description: The C-23 modified derivatives of OMT of this invention have shown in vivo antimicrobial activity against experimental infections. When two doses of test compound were administered to mice experimentally infected with a gram-positive bacterium, S. pyogenes C203, the activity observed was measured as an ED50 value [effective dose in mg/kg to protect 50% of the test animals: see Warren Wick, et al., J. Bacteriol. 81, 233-235 (1961)].

Streptococcus Group 9960 = test: MIC, standard agar-dilution assay (Table V); assay type: cell-based; settings: GROUP9960
Description: as §3

Escherichia coli EC14 = test: MIC, standard agar-dilution assay (Table V); assay type: cell-based; settings: Escherichia coli
In short: (§5)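 Growth inhibition in liquid medium, in a routine microtiter broth-dilution series, gave the MIC against staphylococci and pasteurellae; the gram-negative enteric strain was tested by conventional agar dilution instead.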

[13] = tested on: Staphylococcus aureus S13E; test: MIC, standard agar-dilution assay (Table V); assay type: cell-based; settings: Staphylococcus aureus, S13E
Description: as §3

Shigella sonnei N9 = test: MIC, standard agar-dilution assay (Table V); assay type: cell-based
In short: as §5

[14] = tested on: Staphylococcus aureus X400; test: MIC, standard agar-dilution assay (Table V); assay type: cell-based; settings: Staphylococcus aureus
Description: as §3

[15] = tested on: Klebsiella pneumoniae KAE; test: MIC, standard agar-dilution assay (Table V); assay type: cell-based; settings: Klebsiella pneumoniae
In short: as §5

[16] = tested on: Staphylococcus epidermidis EPI1; test: MIC, standard agar-dilution assay (Table V); assay type: cell-based; settings: Staphylococcus epidermidis
Description: as §3

[17] = tested on: Klebsiella pneumoniae X26; test: MIC, standard agar-dilution assay (Table V); assay type: cell-based; settings: Klebsiella pneumoniae, X26
Description: as §3

[18] = tested on: Streptococcus Group D X66; test: MIC, standard agar-dilution assay (Table V); assay type: cell-based
Description: as §3

[19] = tested on: Staphylococcus epidermidis EPI2; test: MIC, standard agar-dilution assay (Table V); assay type: cell-based; settings: Staphylococcus epidermidis; S. epidermidis EPI2; agar dilution; read-out: MIC
Description: as §3

[20] = tested on: Staphylococcus aureus X1.1; test: MIC, standard agar-dilution assay (Table V); assay type: cell-based; settings: Staphylococcus aureus, X1.1
Description: as §3

Escherichia coli N10 = test: MIC, standard agar-dilution assay (Table V); assay type: cell-based; settings: Escherichia coli
In short: as §5

[21] = tested on: Staphylococcus aureus V41; test: MIC, standard agar-dilution assay (Table V); assay type: cell-based; settings: Staphylococcus aureus
Description: as §3

[22] = tested on: Streptococcus pneumoniae Park I; test: microbe, parasite or virus in culture; assay type: cell-based; settings: Streptococcus pneumoniae; S. pneumoniae Park I; agar dilution; read-out: MIC
Description: as §3

[23] = P. multocida 60A, avian isolate, broth-dilution microtiter, read-out: MIC
[24] = P. multocida 68C, broth-dilution microtiter, read-out: MIC
[25] = M. gallisepticum, broth-dilution microtiter, read-out: MIC
[26] = P. multocida 22A, broth-dilution microtiter, read-out: MIC
[27] = P. multocida 40G, broth-dilution microtiter, read-out: MIC
[28] = P. multocida 17E, bovine isolate, broth-dilution microtiter, read-out: MIC
[29] = E. coli TEM, agar dilution, read-out: MIC
[30] = E. coli EC14, agar dilution, read-out: MIC
[31] = K. pneumoniae KAE, agar dilution, read-out: MIC
[32] = S. epidermidis EPI1, agar dilution, read-out: MIC
[33] = E. coli N10, agar dilution, read-out: MIC

| Structure (SMILES) | MIC [1] [µg/mL] | MIC ([2]; C203) [µg/mL] | MIC [3] [µg/mL] | MIC [4, 23] [µg/mL] | MIC (Streptococcus sp. 80) [µg/mL] | MIC [5, 24] [µg/mL] | MIC (Mycoplasma gallisepticum; [25]) [µg/mL] | MIC [6] [µg/mL] | MIC [7, 26] [µg/mL] | MIC [8] [µg/mL] | MIC [9, 27] [µg/mL] | MIC [10] [µg/mL] | MIC [11, 28] [µg/mL] | activity against these strains (these strains) | MIC [13] [µg/mL] | MIC (Shigella sonnei N9) [µg/mL] | MIC [17] [µg/mL] | MIC [18] [µg/mL] | MIC [19] [µg/mL] | MIC [20] [µg/mL] | also measured |
| --- | --- | --- | --- | --- | --- | --- | --- | --- | --- | --- | --- | --- | --- | --- | --- | --- | --- | --- | --- | --- | --- |
| CCC1OC(=O)CC(O)C(C)C(OC2OC(C)C(O)C(N(C)C)C2O)C(CC=O)CC(C)C(=O)C=CC(C)=CC1CSc1n[nH]c(=O)c(=O)n1C (stereo not drawn) [Compound 6, 23-Deoxo-23-(1H-5,6-dioxo-4-methyl-1,2,4-triazin-3-yl)thio-OMT] | 32 (≈ 43.3 µM) | 1 (≈ 1.35 µM) | 32 (≈ 43.3 µM) | 25 (≈ 33.8 µM) | 6.25 (≈ 8.46 µM) | 25 (≈ 33.8 µM) | 6.25 (≈ 8.46 µM) | 50 (≈ 67.7 µM) | 25 (≈ 33.8 µM) | 50 (≈ 67.7 µM) | 25 (≈ 33.8 µM) | 50 (≈ 67.7 µM) | 25 (≈ 33.8 µM) | did not show activity | 4 (≈ 5.41 µM) | > 128 | 64 (≈ 86.6 µM) | 16 (≈ 21.7 µM) | 8 (≈ 10.8 µM) | 4 (≈ 5.41 µM) | MIC (Escherichia coli TEM): > 128 µg/mL; MIC (Staphylococcus aureus; S. aureus, broth-dilution microtiter, read-out: MIC): 12.5 µg/mL (≈ 16.9 µM); MIC (Mycoplasma synoviae; M. synoviae, broth-dilution microtiter, read-out: MIC): 3.12 µg/mL (≈ 4.22 µM); MIC (Mycoplasma hyorhinis; M. hyorhinis, broth-dilution microtiter, read-out: MIC): 25 µg/mL (≈ 33.8 µM); ED50 ([12]; C203, po, read-out: ED50, Oral): > 100 mg/kg; ED50 ([12]; C203, sc, mice, subcutaneous, doses given 1 and 4 hours postinfection, read-out: ED50, Subcutaneous): 13.6 mg/kg; MIC (Streptococcus Group 9960; Streptococcus Group 9960, agar dilution, read-out: MIC): 16 µg/mL (≈ 21.7 µM); MIC (Escherichia coli EC14; EC14): > 128 µg/mL; MIC ([14]; X400): 8 µg/mL (≈ 10.8 µM); MIC [15]: > 128 µg/mL; MIC ([16]; EPI1): 4 µg/mL (≈ 5.41 µM); MIC (Escherichia coli N10; N10): > 128 µg/mL; MIC ([21]; V41): 4 µg/mL (≈ 5.41 µM) |
| CCC1OC(=O)CC(O)C(C)C(OC2OC(C)C(O)C(N(C)C)C2OC(C)=O)C(CC=O)CC(C)C(=O)C=CC(C)=CC1C[n+]1ccccc1 (stereo not drawn) [Compound 1, 2'-O-Acetyl-23-deoxy-23-pyridinium-OMT Trifluoro methanesulfonate] |  |  |  |  | 12.5 |  | 25 | > 50 |  | > 50 |  | > 50 |  | did not show activity | 32 | > 128 | 64 | 64 | 64 | 32 | MIC ([2]; S. pyogenes C203, agar dilution, read-out: MIC): 32 µg/mL; MIC (Escherichia coli TEM; [29]): > 128 µg/mL; MIC ([4]; 60A): > 50 µg/mL; MIC (Staphylococcus aureus): 50 µg/mL; MIC (Mycoplasma synoviae): 12.5 µg/mL; MIC ([5]; 68C): > 50 µg/mL; MIC ([7]; 22A): > 50 µg/mL; MIC ([9]; 40G): > 50 µg/mL; MIC (Mycoplasma hyorhinis): 50 µg/mL; MIC ([11]; 17E): > 50 µg/mL; MIC (Streptococcus Group 9960): 64 µg/mL; MIC (Escherichia coli EC14; [30]): > 128 µg/mL; MIC ([14]; S. aureus X400, methicillin-resistant strain, agar dilution, read-out: MIC): 64 µg/mL; MIC [15, 31]: > 128 µg/mL; MIC [16, 32]: 32 µg/mL; MIC (Escherichia coli N10; [33]): > 128 µg/mL; MIC ([21]; S. aureus V41, penicillin-resistant strain, agar dilution, read-out: MIC): 64 µg/mL; MIC [22]: 8 µg/mL |
| C=C1C=CC(=O)C(C)CC(CC=O)C(OC2OC(C)C(O)C(N(C)C)C2O)C(C)C(O)CC(=O)OC(CC)C2CC12 (stereo not drawn) [Compound 16] | 64 (≈ 110 µM) | 1 (≈ 1.72 µM) | 64 (≈ 110 µM) | 25 (≈ 43.1 µM) | 6.25 (≈ 10.8 µM) | 25 (≈ 43.1 µM) |  | > 50 | 25 (≈ 43.1 µM) | 50 (≈ 86.2 µM) | 25 (≈ 43.1 µM) | 50 (≈ 86.2 µM) | 25 (≈ 43.1 µM) | did not show activity | 4 (≈ 6.9 µM) | > 128 | 64 (≈ 110 µM) | 4 (≈ 6.9 µM) | 4 (≈ 6.9 µM) | 4 (≈ 6.9 µM) | MIC (Escherichia coli TEM; [29]): > 128 µg/mL; MIC (Staphylococcus aureus): 12.5 µg/mL (≈ 21.6 µM); MIC (Mycoplasma synoviae): 12.5 µg/mL (≈ 21.6 µM); MIC (Mycoplasma gallisepticum): 1.56 µg/mL (≈ 2.69 µM); MIC (Mycoplasma hyorhinis): 12.5 µg/mL (≈ 21.6 µM); ED50 ([12]; C203, po, read-out: ED50, Oral): > 100 mg/kg; ED50 ([12]; C203, sc, read-out: ED50, Subcutaneous): > 30 mg/kg; MIC (Streptococcus Group 9960): 8 µg/mL (≈ 13.8 µM); MIC (Escherichia coli EC14; [30]): > 128 µg/mL; MIC ([14]; X400): 4 µg/mL (≈ 6.9 µM); MIC [15, 31]: > 128 µg/mL; MIC [16, 32]: 4 µg/mL (≈ 6.9 µM); MIC (Escherichia coli N10; [33]): > 128 µg/mL; MIC ([21]; V41): 4 µg/mL (≈ 6.9 µM) |
